In patent US8785614B2, “Aberrantly methylated genes in pancreatic cancer” (The Johns Hopkins University, priority 2003, dated 2014):
Read-outs that look alike come from different tables or passages of the source.

How the values were obtained:
[1] = system: nonneoplastic ductal cell line HPDE
Procedure: (§1) Total RNA was isolated from cultured cells using TRIZOL reagent (invitrogen, Carlsbad, Calif.) and purified using RNeasy Mini Kit (Qiagen, Valencia, Calif.). First- and second-stranded cDNA was synthesized from 10 μg of total RNA using 17-dT) primer (Genset Corp., La Jolla, Calif.) and Superscript Choice system (Invitrogen). Labeled cRNA was synthesized from the purified cDNA by in vitro transcription reaction using the BioArray High Yield RNA Transcript Labeling Kit (Enzo Diagnostics, Inc., Farmingdale, N.Y.) at 37° C. for 6 h. The cRNA was fragmented at 94° C. for 35 min. in a fragmentation buffer [40 mM Tris-acetate @ pH 8.1, 100 mM potassium acestate, and 30 mM magnesium acetate]. The fragmented cRNA was then hybridized to the Human Genome U133A chips (Affymetrix, Santa Clara, Calif.) with 18462 unique gene/EST transcripts at 45° C. for 16 h. The washing and staining procedure was performed in the Affymetrix Fluidics Station according to the manufacturer's instructions. The probes were then scanned using a laser scanner, and signal intensity for each transcript (background-subtracted and adjusted for noise) was calculated using Microarray Suite Software 5.0 (Affymetrix).
(§2) Fold change analysis of signal intensities obtained from oligonucleotide microarrays between the two treatment groups was performed using Data Mining software (Afrymetrix).

[2] = system: MiaPaCa2 pancreatic cancer cell line; assay: Oligonucleotide microarray gene expression after TSA (1 μM, 24 h) vs mock; format: cell-based, human
Procedure: Mock-treated cells were cultured with the equivalent volume of PBS alone.
as §1, §2

Nc1ncn([C@H]2C[C@H](O)[C@@H](CO)O2)c(=O)n1 [5Aza-dC, 5 aza 2′ deoxycytidine]
Fold-change after 5Aza-dC treatment ([1]; ANGPT2, HPDE): −0.4 fold
Fold-change after 5Aza-dC treatment ([1]; BARD1, HPDE): 2.23 fold
Fold-change after 5Aza-dC treatment ([1]; BNIP3, HPDE): 1.23 fold
Fold-change after 5Aza-dC treatment ([1]; BST2, HPDE): −1.06 fold
Fold-change after 5Aza-dC treatment ([1]; CACNA1G, HPDE): 0.39 fold
Fold-change after 5Aza-dC treatment ([1]; CCNE2, HPDE): 1.5 fold
Fold-change after 5Aza-dC treatment ([1]; CDH3, HPDE): −1.08 fold
Fold-change after 5Aza-dC treatment ([1]; CDKN1A (p21), HPDE): 1.33 fold
Fold-change after 5Aza-dC treatment ([1]; CDKN1C, HPDE): 1.07 fold
Fold-change after 5Aza-dC treatment ([1]; CLDN5, HPDE): 2.45 fold
Fold-change after 5Aza-dC treatment ([1]; CSF1, HPDE): −1.03 fold
Fold-change after 5Aza-dC treatment ([1]; DR3, HPDE): 1.01 fold
Fold-change after 5Aza-dC treatment ([1]; FOXE1, HPDE): −1.1 fold
Fold-change after 5Aza-dC treatment ([1]; GAGE1, HPDE): −0.55 fold
Fold-change after 5Aza-dC treatment ([1]; GAGE3, HPDE): 1.33 fold
Fold-change after 5Aza-dC treatment ([1]; GAGE4, HPDE): 3.33 fold
Fold-change after 5Aza-dC treatment ([1]; GAGE6, HPDE): 2.41 fold
Fold-change after 5Aza-dC treatment ([1]; GAGE7, HPDE): 3.36 fold
Fold-change after 5Aza-dC treatment ([1]; HOXA1, HPDE): −1.23 fold
transcripts induced, share of transcripts analyzed ([1]; HPDE): 0.5%
transcripts whose expression was induced after drug treatment ([1]; HPDE): 101 transcripts
Fold-change after 5Aza-dC treatment ([1]; IGF2, HPDE): −0.34 fold
Fold-change after 5Aza-dC treatment ([1]; IL1R1, HPDE): −1.81 fold
Fold-change after 5Aza-dC treatment ([1]; ISG20, HPDE): 0.89 fold
Fold-change after 5Aza-dC treatment ([1]; JPH3, HPDE): 2.14 fold
Fold-change after 5Aza-dC treatment ([1]; KLK10, HPDE): 3.75 fold
Fold-change after 5Aza-dC treatment ([1]; LDOC1, HPDE): −1.12 fold
Fold-change after 5Aza-dC treatment ([1]; LHX1, HPDE): 1.01 fold
Fold-change after 5Aza-dC treatment ([1]; MAGE1, HPDE): 1.7 fold
Fold-change after 5Aza-dC treatment ([1]; MATN1, HPDE): −125 fold
Fold-change after 5Aza-dC treatment ([1]; NEFH, HPDE): −1.08 fold
Fold-change after 5Aza-dC treatment ([1]; NPTX2, HPDE): 2.42 fold
Fold-change after 5Aza-dC treatment ([1]; PAX6, HPDE): 2.57 fold
Fold-change after 5Aza-dC treatment ([1]; PDYN, HPDE): −1.04 fold
Fold-change after 5Aza-dC treatment ([1]; PLAT, HPDE): 4.9 fold
Fold-change after 5Aza-dC treatment ([1]; PLEK2, HPDE): 1.2 fold
Fold-change after 5Aza-dC treatment ([1]; SARP2, HPDE): 1.11 fold
Fold-change after 5Aza-dC treatment ([1]; SMARCA1, HPDE): 3.54 fold
Fold-change after 5Aza-dC treatment ([1]; ST14, HPDE): −1.05 fold
Fold-change after 5Aza-dC treatment ([1]; TIMP3, HPDE): 1.32 fold
Fold-change after 5Aza-dC treatment ([1]; TJP2, HPDE): 1.41 fold
Fold-change after 5Aza-dC treatment ([1]; TNF, HPDE): −1.2 fold
Fold-change after 5Aza-dC treatment ([1]; UCHL1, HPDE): 1.95 fold
Fold-change after 5Aza-dC treatment ([1]; WNT7A, HPDE): −1.23 fold
Fold-change after 5Aza-dC treatment ([1]; XAGE-1, HPDE): −0.43 fold
Fold-change after 5Aza-dC treatment ([1]; granulocytemacrophage colony-stimulating factor (M11734), HPDE): −0.94 fold
Fold-change after 5Aza-dC treatment ([1]; interferon, alpha-inducible protein (NM_022873), HPDE): 1.33 fold
Fold-change after 5Aza-dC treatment ([1]; p53-induced protein (PIGII), HPDE): −1.58 fold
Fold-change after 5Aza-dC treatment ([1]; reprimo, HPDE): 1.06 fold
Fold-change after 5Aza-dC treatment ([1]; stratifin (14-3-3 sigma), HPDE): −1.46 fold
Fold-change after 5Aza-dC treatment ([1]; stromal antigen 3 (STAG5), HPDE): 4.8 fold
Fold-change after 5Aza-dC treatment ([1]; testin, HPDE): 1.09 fold

CC(/C=C/C(=O)NO)=C\[C@@H](C)C(=O)c1ccc(N(C)C)cc1 [TSA, trichostatin A]
Fold-change after TSA treatment ([2]; ADM, MiaPaCa2): 5.02 fold
Fold-change after TSA treatment ([2]; ANGPT1, MiaPaCa2): 1.75 fold
Fold-change after TSA treatment ([2]; AREG, MiaPaCa2): 3.97 fold
Fold-change after TSA treatment ([2]; ATF3, MiaPaCa2): 2.14 fold
Fold-change after TSA treatment ([2]; BIK, MiaPaCa2): 10.05 fold
Fold-change after TSA treatment ([2]; CACNA1G, MiaPaCa2): 4.61 fold
Fold-change after TSA treatment ([2]; CAPN5, MiaPaCa2): 5.18 fold
Fold-change after TSA treatment ([2]; CDH8, MiaPaCa2): −1.29 fold
Fold-change after TSA treatment ([2]; CDKN1C, MiaPaCa2): 13.22 fold
Fold-change after TSA treatment ([2]; CGR11, MiaPaCa2): 3.22 fold
Fold-change after TSA treatment ([2]; CHES1, MiaPaCa2): −1.03 fold
Fold-change after TSA treatment ([2]; CHFR, MiaPaCa2): 1.27 fold
Fold-change after TSA treatment ([2]; CLDN15, MiaPaCa2): 1.13 fold
Fold-change after TSA treatment ([2]; EDR1, MiaPaCa2): 5.91 fold
Fold-change after TSA treatment ([2]; EGR4, MiaPaCa2): 8.67 fold
Fold-change after TSA treatment ([2]; EREG, MiaPaCa2): 1.7 fold
Fold-change after TSA treatment ([2]; GADD45B, MiaPaCa2): 5.06 fold
Fold-change after TSA treatment ([2]; GAGE1, MiaPaCa2): 0.53 fold
Fold-change after TSA treatment ([2]; GAGE2, MiaPaCa2): 1.31 fold
Fold-change after TSA treatment ([2]; GAGE3, MiaPaCa2): −2.68 fold
Fold-change after TSA treatment ([2]; GAGE4, MiaPaCa2): 1.32 fold
Fold-change after TSA treatment ([2]; GAGE6, MiaPaCa2): −2.17 fold
Fold-change after TSA treatment ([2]; GAGE7B, MiaPaCa2): −1.76 fold
Fold-change after TSA treatment ([2]; H1 historic family, member 2 (BC002649), MiaPaCa2): 4.16 fold
Fold-change after TSA treatment ([2]; HEP27, MiaPaCa2): 26.21 fold
Fold-change after TSA treatment ([2]; HMOX1, MiaPaCa2): 5.25 fold
Fold-change after TSA treatment ([2]; HPSE, MiaPaCa2): 14.09 fold
Fold-change after TSA treatment ([2]; ID2, MiaPaCa2): 2.27 fold
Fold-change after TSA treatment ([2]; ING1, MiaPaCa2): 13.25 fold
Fold-change after TSA treatment ([2]; KLK12, MiaPaCa2): 2.91 fold
Fold-change after TSA treatment ([2]; MAGE1, MiaPaCa2): 5.17 fold
Fold-change after TSA treatment ([2]; MBD1, MiaPaCa2): 1.28 fold
Fold-change after TSA treatment ([2]; MMP1, MiaPaCa2): 1.01 fold
transcripts with marked induction ([2]; MiaPaCa2): 207 transcripts
transcripts with marked induction, share of transcripts analyzed ([2]; MiaPaCa2): 1.1%
Fold-change after TSA treatment ([2]; NGFR, MiaPaCa2): 13.46 fold
Fold-change after TSA treatment ([2]; NOTCH3, MiaPaCa2): −1.04 fold
Fold-change after TSA treatment ([2]; P-glycoprotein (mdr1), MiaPaCa2): 2.74 fold
Fold-change after TSA treatment ([2]; STC1, MiaPaCa2): 2.73 fold
Fold-change after TSA treatment ([2]; UCPH, MiaPaCa2): 6.39 fold
Fold-change after TSA treatment ([2]; ULBP2, MiaPaCa2): 4.09 fold
Fold-change after TSA treatment ([2]; WNT4, MiaPaCa2): 3.36 fold
Fold-change after TSA treatment ([2]; candidate tumor suppressor gene 21 protein (AF040708), MiaPaCa2): 1.15 fold
Fold-change after TSA treatment ([2]; connective tissue growth factor (M92934), MiaPaCa2): 4.28 fold
Fold-change after TSA treatment ([2]; hemoglobin, alpha 1 (HBAI), MiaPaCa2): 77.77 fold
Fold-change after TSA treatment ([2]; interleukin 8, MiaPaCa2): 1.36 fold
Fold-change after TSA treatment ([2]; period homolog 1 (PERI), MiaPaCa2): 1.28 fold
Fold-change after TSA treatment ([2]; prostate differentiation factor (AF003934), MiaPaCa2): 16.4 fold
Fold-change after TSA treatment ([2]; protease inhibitor 12 (neuroserpin) (SERPINU), MiaPaCa2): 44.44 fold
Fold-change after TSA treatment ([2]; synovial sarcoma, X breakpoint 1 (BC001003), MiaPaCa2): 1.5 fold
Fold-change after TSA treatment ([2]; tissue factor pathway inhibitor-2 (L27624), MiaPaCa2): −0.68 fold
